Series [1] concerns the target T1, Glucocorticoid receptor (Homo sapiens, UniProt P04150).
T1 sequence (P04150 whole entry): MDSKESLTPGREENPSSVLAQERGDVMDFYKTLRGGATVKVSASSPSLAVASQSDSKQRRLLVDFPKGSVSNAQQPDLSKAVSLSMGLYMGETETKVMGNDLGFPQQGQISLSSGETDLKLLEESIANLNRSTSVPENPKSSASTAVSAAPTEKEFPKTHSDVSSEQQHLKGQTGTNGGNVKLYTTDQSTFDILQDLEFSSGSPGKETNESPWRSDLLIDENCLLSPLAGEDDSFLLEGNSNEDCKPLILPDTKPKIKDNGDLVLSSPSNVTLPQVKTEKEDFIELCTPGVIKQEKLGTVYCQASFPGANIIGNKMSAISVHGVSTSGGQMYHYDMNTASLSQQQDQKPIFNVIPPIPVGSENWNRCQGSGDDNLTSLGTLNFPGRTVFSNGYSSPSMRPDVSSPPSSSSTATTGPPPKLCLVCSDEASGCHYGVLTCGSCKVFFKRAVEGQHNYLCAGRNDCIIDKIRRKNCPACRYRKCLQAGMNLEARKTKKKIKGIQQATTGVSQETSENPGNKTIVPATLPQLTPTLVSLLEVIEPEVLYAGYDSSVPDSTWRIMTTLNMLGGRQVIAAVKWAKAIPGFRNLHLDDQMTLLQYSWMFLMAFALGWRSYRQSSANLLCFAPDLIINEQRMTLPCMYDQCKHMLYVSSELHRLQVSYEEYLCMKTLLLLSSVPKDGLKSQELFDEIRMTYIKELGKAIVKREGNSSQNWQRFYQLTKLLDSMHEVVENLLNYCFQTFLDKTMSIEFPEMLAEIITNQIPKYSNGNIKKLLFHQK
Nature of the series: Agonist activity at glucocorticoid receptor (unknown origin) incubated for 24 hrs by cell based microplate analysis.

Series [2] in a line: Retention time of the compound by HPLC analysis. The series is classed as physicochemical.

Each structure is given as a SMILES string.

For `CCN(C[C@@](O)(CNC(=O)c1cnn(-c2ccc(F)cc2)c1N)C(F)(F)F)C(=O)c1c(Cl)cccc1Cl`, in series [1], the EC50 (commonly the concentration needed to bring the measured effect to its halfway point) worked out at 2 nM. The same molecule gave a Retention_time in series [2] of 2.337 min. `CCN(C[C@](O)(CNC(=O)c1cnn(-c2ccc(F)cc2)c1N)C(F)(F)F)C(=O)c1c(Cl)cccc1Cl` had a Retention_time in series [2] of 3.06 min.

Regarding `CCN(C[C@@](O)(CNC(=O)c1cnn(-c2ccc(F)cc2)c1N)C(F)(F)F)C(=O)c1c(F)cccc1Cl`, in series [1], the EC50 amounted to 2 nM. The molecule further returned a Retention_time in series [2] of 2.979 min. In series [2], `CCN(C[C@@](O)(CNC(=O)c1cnn(-c2ccc(F)cc2)c1N)C(F)(F)F)C(=O)c1c(C)cccc1F` displayed a Retention_time of 2.279 min. As to `CCN(C[C@@](O)(CNC(=O)c1cnn(-c2ccc(F)cc2)c1N)C(F)(F)F)C(=O)c1c(F)cccc1F`, a half-maximal response in series [1] (EC50) required 5 nM. For the same molecule, in series [2], the Retention_time stood at 2.228 min. The matching figures for `CCc1ccccc1C(=O)N(CC)C[C@@](O)(CNC(=O)c1cnn(-c2ccc(F)cc2)c1N)C(F)(F)F`: 4 nM and 2.353 min.

The molecule `CCN(C[C@@](O)(CNC(=O)c1cnn(-c2ccc(F)cc2)c1N)C(F)(F)F)C(=O)c1ccccc1C` returned a Retention_time in series [2] of 2.179 min. On the same count and under the same terms, for `CCN(C[C@@](O)(CNC(=O)c1cnn(-c2ccc(F)cc2)c1N)C(F)(F)F)C(=O)c1ccccc1Cl` the value was 2.238 min; for `CCN(C[C@@](O)(CNC(=O)c1cnn(-c2ccc(F)cc2)c1N)C(F)(F)F)C(=O)c1c(C)cccc1C`, 2.349 min. In turn, `CCN(C[C@@](O)(CNC(=O)c1cnn(-c2ccc(F)cc2)c1N)C(F)(F)F)C(=O)c1ccccc1F` returned an EC50 in series [1] of 26 nM. This molecule also yielded a Retention_time in series [2] of 2.249 min. Molecule `CCc1cccc(CC)c1C(=O)N(CC)C[C@@](O)(CNC(=O)c1cnn(-c2ccc(F)cc2)c1N)C(F)(F)F` had an EC50 in series [1] of 122 nM. In series [2], this molecule gave a Retention_time of 2.544 min. The matching figures for `CCN(C[C@@](O)(CNC(=O)c1cnn(-c2ccc(F)cc2)c1N)C(F)(F)F)C(=O)c1ccccc1`: 78 nM and 2.163 min. The matching figures for `CCN(C[C@@](O)(CNC(=O)c1cnn(-c2ccc(F)cc2)c1N)C(F)(F)F)C(=O)c1c(C)cccc1Cl` (stereo in doubt; 10a): 2 nM and 2.314 min. The matching figures for `CCN(C[C@@](O)(CNC(=O)c1cnn(-c2ccc(F)cc2)c1N)C(F)(F)F)C(=O)c1c(C)cccc1Cl` (stereo in doubt; 10b): 4 nM and 2.36 min. In series [2], `CCc1cccc(C)c1C(=O)N(CC)C[C@@](O)(CNC(=O)c1cnn(-c2ccc(F)cc2)c1N)C(F)(F)F` (stereo in doubt; 13a) displayed a Retention_time of 2.394 min.

For the molecule `CCc1cccc(C)c1C(=O)N(CC)C[C@@](O)(CNC(=O)c1cnn(-c2ccc(F)cc2)c1N)C(F)(F)F` (stereo in doubt; 13b), the Retention_time in series [2] was found to be 2.417 min.

Consider `CCc1cccc(Cl)c1C(=O)N(CC)C[C@@](O)(CNC(=O)c1cnn(-c2ccc(F)cc2)c1N)C(F)(F)F` (stereo in doubt; 14a), for which, in series [1], the midpoint of the response, the EC50, lay at 9 nM. In series [2], this molecule yielded a Retention_time of 2.39 min. The matching figures for `CCc1cccc(Cl)c1C(=O)N(CC)C[C@@](O)(CNC(=O)c1cnn(-c2ccc(F)cc2)c1N)C(F)(F)F` (stereo in doubt; 14b): 0.5 nM and 2.396 min.
